{"source": "patent US20260364214A1", "about": "“MULTIVALENT FIBROBLAST ACTIVATION PROTEIN LIGANDS FOR TARGETED DELIVERY APPLICATIONS” (Philochem AG, priority 2022, published 2026)", "test_system": "SK-RC-52.hFAP tumors", "experiment": "Quantitative biodistribution in SK-RC-52.hFAP tumor bearing mice", "format": "in vivo, mouse (female athymic Balb/c AnNRj-Foxn1)", "conditions": "i.v. 250 nmol/kg, 50 MBq/kg", "method": "SK-RC-52.hFAP were grown to 80% confluence in RPMI-1640 with 10% fetal bovine serum (FBS) and 1% antibiotic-antimycotic and detached with Trypsin-EDTA (ethylenediaminetetraacetic acid) 0.05%. Tumor cells were resuspended in Hanks' Balanced Salt Solution medium. Aliquots of 5 million cells (100 μL of suspension) were injected subcutaneously in the right flank of female athymic Balb/c AnNRj-Foxn1 mice (6 to 8 wk of age).\nRadiolabeling of ESV6-DOTAGA, Bi-ESV6-DOTAGA, Tri-ESV6-DOTAGA, Tetra-ESV6-DOTAGA, Hexa-ESV6-DOTAGA, Octa-ESV6-DOTAGA and FAP-2286 with lutetium-177 (a therapeutic radionuclide) was performed with different specific activities for three different studies (biodistribution, therapy and dose optimization).\nPrior to the biodistribution study, precursors (100 nmol) were dissolved in 100 μL of milliQ water and diluted with 200 μL of sodium acetate (1 M in water, pH=4.5). 20 MBq of ^177Lu solution were added and the mixture was heated at 90 °C for 10 minutes, followed by dilution with […] of PBS to achieve final volume of 2 mL (20 doses of 100 μL each).\nESV6-DOTAGA, Bi-ESV6-DOTAGA, Tri-ESV6-DOTAGA, Tetra-ESV6-DOTAGA, Hexa-ESV6-DOTAGA, Octa-ESV6-DOTAGA and FAP-2286 were radiolabeled with ^177Lu as described above. Tumors were allowed to grow to an average volume of 300 mm^3. Mice were randomized and injected intravenously with radiolabeled preparations of ^177Lu-ESV6, ^177Lu-Bi-ESV6, ^177Lu-Tri-ESV6, Tetra-ESV6-DOTAGA, Hexa-ESV6-DOTAGA, Octa-ESV6-DOTAGA or ^177Lu-FAP-2286 (250 nmol/kg; 50 MBq/kg). Mice were euthanized at different time-points after the intravenous injection by CO2 asphyxiation. Tumors, organs, and blood were collected, weighted, and radioactivity was measured with a Packard Cobra Gamma Counter. Values are expressed as percent ID/g±SD [FIG. 4]. The % ID/g in the tumors was corrected considering the SK-RC-52.hFAP tumor growth rate.\nQuantitative in vivo biodistribution of ^177Lu-ESV6-DOTAGA, ^177Lu-Bi-ESV6-DOTAGA, ^177Lu-Tri-ESV6-DOTAGA, ^177Lu-FAP-2286, Tetra-ESV6-DOTAGA, Hexa-ESV6-DOTAGA and Octa-ESV6-DOTAGA at different time points after intravenous administration (250 nmol/kg, 50 MBq/kg) in mice bearing SK-RC-52.hFAP tumors, are shown in Tables 1 to 4 and 10 to 12. Data are reported as % ID/g±standard deviation.\nTumor-to-organ ratios of ^177Lu-ESV6-DOTAGA, ^177Lu-Bi-ESV6-DOTAGA, ^177Lu-Tri-ESV6-DOTAGA, ^177Lu-FAP-2286, Tetra-ESV6-DOTAGA, Hexa-ESV6-DOTAGA and Octa-ESV6-DOTAGA, at different time points after intravenous administration (250 nmol/kg, 50 MBq/kg) in mice bearing SK-RC-52.hFAP tumors, are shown in Tables 5 to 8 and 13 to 15. Avg.=average; Std.d=standard deviation."}
{"molecule": "N#C[C@@H]1CC(F)(F)CN1C(=O)CNC(=O)c1ccnc2c(NC(=O)CCC(=O)NCCNC(=O)CCOCC(COCCC(=O)NCCNC(=O)CCC(=O)Nc3cccc4c(C(=O)NCC(=O)N5CC(F)(F)C[C@H]5C#N)ccnc34)(COCCC(=O)NCCNC(=O)CCC(=O)Nc3cccc4c(C(=O)NCC(=O)N5CC(F)(F)C[C@H]5C#N)ccnc34)NC(=O)CCC(C(=O)O)N3CCN(CC(=O)O)CCN(CC(=O)O)CCN(CC(=O)O)CC3)cccc12", "note": "(stereo partly drawn) [Tri-ESV6-DOTAGA, 2,2′,2″-(10-(19-carboxy-1-((4-((2-((S)-2-cyano-4,4-difluoropyrrolidin-1-yl)-2-oxoethyl)carbamoyl)quinolin-8-yl)amino)-14,14-bis((3-((2-(4-((4-((2-((S)-2-cyano-4,4-difluoropyrrolidin-1-yl)-2-oxoethyl)carbamoyl)quinolin-8-yl)amino)-4-oxobutanamido)ethyl)amino)-3-oxopropoxy)methyl)-1,4,9,16-tetraoxo-12-oxa-5,8,15-triazanonadecan-19-yl)-1,4,7,10-tetraazacyclododecane-1,4,7-triyl)triacetic acid]", "values": [{"measurement": "tumor uptake / biodistribution profile, in words", "value": "remarkably high tumor uptake even after 48, 72 and 96 hours post injection"}]}
